Assay results from patent US20250352534A1 (Tesaro, Inc., priority 2022, published 2025).
Like-named read-outs stand apart in the source and are kept apart here.

Key:
[1] = brain penetration in healthy Rhesus macaque monkeys (LC-MS, MALDI IMS); assay type: in vivo; conditions: for Bulk Brain Homogenate, adjusted free concentration / Bulk Brain Homogenate, total concentration: LC-MS; for Terminal CSF / Terminal Plasma, adjusted free concentration: at necropsy; for Kp, uu Brain/Plasma: from bulk brain homogenate and terminal plasma free concentrations
Protocol: Pre-dose blood was collected daily and terminal blood, cerebrospinal fluid (CSF), and brain tissue was collected at necropsy. […] Blood, CSF, and bulk homogenates of brain tissue were analyzed by LC-MS bioanalysis.

[2] = brain penetration in mouse brain metastatic tumor model (LC-MS, MALDI IMS); assay type: in vivo, mice; conditions: for Bulk Brain Homogenate Avg, adjusted free concentration / Bulk Brain Homogenate Avg, total concentration: LC-MS; for Bulk Brain Homogenate Avg, adjusted free concentration / Bulk Brain Homogenate Avg, total concentration / concentration at 2 h: 2 hr post final dose; for concentration at 2 h: plasma, po QD 5 days, niraparib 35 mg/kg, olaparib 50 mg/kg, read-out: Terminal Plasma Avg, total concentration
Excerpt: Female mice (CrTac:NCr-Foxnlnu; 6 w/o) received 2.5E5 luciferase transfected human breast cancer line (MDA 231-BRM2-831) via intracardiac injection. Mice were imaged twice/week using bioluminescence imaging (BLI) to monitor tumor growth. […] Tissue collected between each imaging plane was homogenized for LC-MS bioanalysis.

O=C(c1cc(Cc2n[nH]c(=O)c3ccccc23)ccc1F)N1CCN(C(=O)C2CC2)CC1 [olaparib]
MALDI IMS Brain Section Average, total concentration ([1]; Monkey 1): BLQ | Pre-Dose Plasma, total concentration ([1]; Monkey 1, Day 1, po daily 5 days, niraparib 6 mg/kg, olaparib 10 mg/kg): BQL | Pre-Dose Plasma, adjusted free concentration ([1]; Monkey 1, Day 2): 8 ng/mL | Pre-Dose Plasma, total concentration ([1]; Monkey 1, Day 2): 27 ng/mL | Pre-Dose Plasma, adjusted free concentration ([1]; Monkey 1, Day 3): 8 ng/mL | Pre-Dose Plasma, total concentration ([1]; Monkey 1, Day 3): 26 ng/mL | Pre-Dose Plasma, adjusted free concentration ([1]; Monkey 1, Day 4): 10 ng/mL | Pre-Dose Plasma, total concentration ([1]; Monkey 1, Day 4): 33 ng/mL | Pre-Dose Plasma, adjusted free concentration ([1]; Monkey 1, Day 5): (10) ng/mL | Pre-Dose Plasma, total concentration ([1]; Monkey 1, Day 5): 33 ng/mL | Bulk Brain Homogenate, adjusted free concentration ([1]; Monkey 1): (2) ng/g | Bulk Brain Homogenate, total concentration ([1]; Monkey 1): 12 ng/g | Terminal CSF ([1]; Monkey 1): 13 ng/mL | Terminal Plasma, adjusted free concentration ([1]; Monkey 1): (99) ng/mL | Kp, uu Brain/Plasma ([1]; Monkey 1): 0.02 | MALDI IMS Brain Section Average, total concentration ([1]; Monkey 2): BLQ | Pre-Dose Plasma, total concentration ([1]; Monkey 2, Day 1, po daily 5 days, niraparib 6 mg/kg, olaparib 10 mg/kg): BQL | Pre-Dose Plasma, adjusted free concentration ([1]; Monkey 2, Day 2): 16 ng/mL | Pre-Dose Plasma, total concentration ([1]; Monkey 2, Day 2): 51 ng/mL | Pre-Dose Plasma, adjusted free concentration ([1]; Monkey 2, Day 3): 5 ng/mL | Pre-Dose Plasma, total concentration ([1]; Monkey 2, Day 3): 17 ng/mL | Pre-Dose Plasma, adjusted free concentration ([1]; Monkey 2, Day 4): 16 ng/mL | Pre-Dose Plasma, total concentration ([1]; Monkey 2, Day 4): 53 ng/mL | Pre-Dose Plasma, adjusted free concentration ([1]; Monkey 2, Day 5): (14) ng/mL | Pre-Dose Plasma, total concentration ([1]; Monkey 2, Day 5): 45 ng/mL | Bulk Brain Homogenate, adjusted free concentration ([1]; Monkey 2): (2) ng/g | Bulk Brain Homogenate, total concentration ([1]; Monkey 2): 11 ng/g | Terminal CSF ([1]; Monkey 2): 6 ng/mL | Terminal Plasma, adjusted free concentration ([1]; Monkey 2): (78) ng/mL | Kp, uu Brain/Plasma ([1]; Monkey 2): 0.03 | detection and distribution in coronal brain sections by MALDI IMS ([1]; healthy Rhesus macaque monkeys, five days oral administration): not detected | Mean Kp, uu Brain/Plasma ([1]; mean of Monkey 1 and 2): 0.02 | Bulk Brain Homogenate Avg, adjusted free concentration ([2]; BM mice): 2 ng/g | Bulk Brain Homogenate Avg, total concentration ([2]; BM mice): 11 ng/g | Bulk Brain Homogenate Avg, adjusted free concentration ([2]; Control mice): 2 ng/g | Bulk Brain Homogenate Avg, total concentration ([2]; Control mice): 12 ng/g | Kp, uu Brain ([2]; Control mice, from bulk brain homogenate and terminal plasma free concentrations): 0.02 | Kp uu at 2 h post final dose ([2]; female, CrTac:NCr-Foxnlnu, mouse, oral, BM mice, from bulk brain homogenate and terminal plasma free concentrations): 0.03 | concentration at 2 h ([2]; female, CrTac:NCr-Foxnlnu, mouse, oral, BM (brain metastases) mice): 254 ng/mL | concentration at 2 h ([2]; female, CrTac:NCr-Foxnlnu, mouse, oral, Control mice): 322 ng/mL
